# Data taken from patent US20250222050A1, “Chlorella and Corn Leaf Extract Compositions, Their Production, and Methods of Use” (Unigen, Inc., priority 2024, published 2025).
# Key:
# Assay type in all cases: in vivo
# BALB/C mice [1] = assay: Sleep time (duration) after pentobarbital sodium; conditions: oral 1 mg/kg, 46 mg/kg pentobarbital sodium i.p. 15 min after last dose
# Protocol: Purpose bred BALB/C mice (n=405; male, 20 g-22 g) were purchased from Beijing Hua Fukang biological technologies Inc (Beijing, China). […] Mice were kept in specific pathogen free, temperature-controlled room and fed with rodent diet purchased from Beijing Hua Fukang biological technologies Inc (Beijing, China). Three consecutive studies were carried out. Mice were randomly assigned into 9 groups for each experiment. Fifteen mice were allocated in each group.
# The amount of time spent sleeping was determined by injecting mice with 46 mg/kg pentobarbital sodium, intraperitoneally, 15 minutes after administration of the last dose of the test materials. The sleep time of each mouse was recorded and the difference of sleep time between tested materials and vehicle control were analyzed.
# BALB/C mice [2] = assay: Sleep incidence under hypnotic subthreshold dose of pentobarbital; conditions: mice n=15, oral 1 mg/kg; 32 mg/kg pentobarbital i.p. 15 min after last dose
# Protocol: The numbers of mice that lost turnover to the right side over 1 min following injection of pentobarbital were recorded. The incidence of sleeping mice was analyzed to compare the difference between the tested substance groups and vehicle control. All the experiments were conducted at night.
# BALB/C mice [3] = assay: 60-minute direct effect (direct sleep) test, no pentobarbital
# Protocol: Purpose bred BALB/C mice (n=405; male, 20 g-22 g) were purchased from Beijing Hua Fukang biological technologies Inc (Beijing, China). The study was carried out at Testing Center for the functions of Health Foods, College of Arts and science of Beijing Union University (Beijing, China). Mice were kept in specific pathogen free, temperature-controlled room and fed with rodent diet purchased from Beijing Hua Fukang biological technologies Inc (Beijing, China). Three consecutive studies were carried out. Mice were randomly assigned into 9 groups for each experiment. Fifteen mice were allocated in each group. The first experiment was set to determine the sleep incidence effect of test materials. The second experiment was designed to detect the total sleep time under the hypnotic subthreshold dose of pentobarbital sodium (Lot #: 34E10320, Beijing Dingguo Changsheng Biotechnology Co. Ltd). The third experiment was set to detect sleep latency induced by barbital sodium (Lot #: 527B051, Merck).
# Zea mays (corn) leaf extract standardized at not less than 0.2% 6-MBOA (Lot #: FP210105-01) and Chlorella Powder (Lot #: 222A) were suspended with sterile water. Melatonin purchased from By-Health Co. Ltd. (Beijing, China) was used as a reference compound in each study. All mice were orally administrated with test materials in a volume of 20 mL/kg BW/day. Study lasted for 31 days. […]
# BALB/C mice [4] = assay: Sleep latency induced by barbital sodium
# Protocol: Purpose bred BALB/C mice (n=405; male, 20 g-22 g) were purchased from Beijing Hua Fukang biological technologies Inc (Beijing, China). The study was carried out at Testing Center for the functions of Health Foods, College of Arts and science of Beijing Union University (Beijing, China). Mice were kept in specific pathogen free, temperature-controlled room and fed with rodent diet purchased from Beijing Hua Fukang biological technologies Inc (Beijing, China). Three consecutive studies were carried out. Mice were randomly assigned into 9 groups for each experiment. Fifteen mice were allocated in each group. […] The third experiment was set to detect sleep latency induced by barbital sodium (Lot #: 527B051, Merck).
# Mice were intraperitoneally injected with 240 mg/kg barbital sodium (0.2 mL/20 g body weight), 15 min after the last test material administration. Sleep latency was recorded and the difference in sleep time between the tested substance groups and vehicle control were determined. […]
smiles,measurement,setting,value
COc1ccc2[nH]cc(CCNC(C)=O)c2c1 [Melatonin],Sleep Time (sleep duration),BALB/C mice [1],59.7 ± 13.0 min
same,Incidence (sleep incidence),BALB/C mice [2],60%
same,Numbers of sleeping,"BALB/C mice [3]; mice n=15, oral 1 mg/kg, 1 h after administration",0
same,Sleep Time,"BALB/C mice [3]; mice, oral 1 mg/kg",0 min
same,sleep latency versus vehicle control (in words),"BALB/C mice [4]; melatonin 1 mg/kg, chlorella 5,000 mg/kg, combination 250 + 5,000 mg/kg",significantly shortened
same,Latent Time (sleep onset latency),"BALB/C mice [4]; mice, oral 1 mg/kg, 240 mg/kg barbital sodium i.p. 15 min after last dose",37.8 ± 12.8 min
